pIC50: −log10 of the molar value. Counter-ions that a name gives are not always drawn. Like-named read-outs stand apart in the source and are kept apart here.
What was measured:
human PI3Kα protein = target: T1, human PI3Kα protein (Homo sapiens, UniProt P42336); assay: PI3Kα enzyme assay (ADP-Glo); type: biochemical; settings: read-out: PI3Kα enzyme inhibitory activity
T1 construct: purchased Carna Biosciences, Inc; host or cells: baculovirus expression system
Method in brief: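 Biotinylated human PI3Kα (baculovirus-expressed, 4.5 nmol/L) pre-incubated 15 min with compound in Tris-HCl pH 7.5, MgCl2, BSA; reaction 60 min at 25° C with 50 μmol/L PIP2 and 100 μmol/L ATP final. ADP quantified by ADP-Glo luminescence; IC50 calculated.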

[1] = target: T2, GST fusion human ERK2 protein (Homo sapiens, UniProt P28482); assay: ERK2 enzyme assay (2); type: biochemical; settings: read-out: ERK2 enzyme inhibitory activity (2)
T2 construct: purchased Carna Biosciences, Inc; host or cells: E. coli expression system
Method in brief: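 IC50 values come from mobility-shift measurement of phosphorylated versus unphosphorylated 5-FAM peptide substrate after EDTA quench. Beforehand, compound and 1.25 nmol/L E. coli-expressed GST–human ERK2 stood 15 min at room temperature (pH 7.5), then 1 mmol/L ATP and 4.25 μmol/L substrate (final) were added for 120 min at 25 °C.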

CHO-K1 cells = assay: CHO cell toxicity test; type: cell-based, Chinese hamster; settings: Cricetulus griseus; CHO-K1 cells, 24 hours culture with compound, CellTiter-Glo; read-out: IC50 value (concentration at which the number of viable cells was suppressed to 50% or less)
Experimental: In a CHO cell toxicity test, the following was used.
Cell: CHO-K1 cells (derived from Chinese hamster ovary) Test medium: F-12 MEDIUM+FCS (manufactured by Biowest) having a final concentration of 2%
Detection reagent: CELLTITER-GLO™ LUMINESCENT CELL VIABILITY ASSAY (trade name, manufactured by PROMEGA Corporation)
The CHO-K1 cells were seeded in a 96-well microplate for culture at 5,000 cells/well, and cultured in a CO2 incubator (37° C.) for 24 hours. An evaluation compound (final concentration: from 25.00 μmol/L to 0.20 μmol/L, common ratio: […]) was added thereto, followed by culturing for 24 hours, and the number of viable cells was calculated from emission intensity by CELLTITER-GLO™ (trade name, manufactured by PROMEGA Corporation). In the measurement of the emission intensity, VARIOSKAN FLASH (manufactured by Thermo Fisher Scientific Inc.) was used.
Inhibition ratio (%)=100−(A/B)×100
A: Emission intensity in the presence of a test compound
B: Emission intensity in the absence of a test compound

[2] = target: T2, GST fusion human ERK2 protein; assay: ERK2 enzyme assay (1); type: biochemical; settings: read-out: ERK2 enzyme inhibitory activity (1)
Method in brief: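 IC50 derived from the proportion of phosphorylated 5-FAM peptide, separated from unphosphorylated peptide by microfluidic mobility shift. Compound was first preincubated 15 min at room temperature with 2.5 nmol/L kinase at pH 7.5, then 43.1 μmol/L ATP plus 4.25 μmol/L substrate reacted 120 min at 25 °C.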

[3] = 4.5 nmol/L PI3Kα, PIP2 50 μmol/L, ATP 100 μmol/L
[4] = 2.5 nmol/L ERK2, ATP 43.1 μmol/L

T1 sequence (P42336 whole entry): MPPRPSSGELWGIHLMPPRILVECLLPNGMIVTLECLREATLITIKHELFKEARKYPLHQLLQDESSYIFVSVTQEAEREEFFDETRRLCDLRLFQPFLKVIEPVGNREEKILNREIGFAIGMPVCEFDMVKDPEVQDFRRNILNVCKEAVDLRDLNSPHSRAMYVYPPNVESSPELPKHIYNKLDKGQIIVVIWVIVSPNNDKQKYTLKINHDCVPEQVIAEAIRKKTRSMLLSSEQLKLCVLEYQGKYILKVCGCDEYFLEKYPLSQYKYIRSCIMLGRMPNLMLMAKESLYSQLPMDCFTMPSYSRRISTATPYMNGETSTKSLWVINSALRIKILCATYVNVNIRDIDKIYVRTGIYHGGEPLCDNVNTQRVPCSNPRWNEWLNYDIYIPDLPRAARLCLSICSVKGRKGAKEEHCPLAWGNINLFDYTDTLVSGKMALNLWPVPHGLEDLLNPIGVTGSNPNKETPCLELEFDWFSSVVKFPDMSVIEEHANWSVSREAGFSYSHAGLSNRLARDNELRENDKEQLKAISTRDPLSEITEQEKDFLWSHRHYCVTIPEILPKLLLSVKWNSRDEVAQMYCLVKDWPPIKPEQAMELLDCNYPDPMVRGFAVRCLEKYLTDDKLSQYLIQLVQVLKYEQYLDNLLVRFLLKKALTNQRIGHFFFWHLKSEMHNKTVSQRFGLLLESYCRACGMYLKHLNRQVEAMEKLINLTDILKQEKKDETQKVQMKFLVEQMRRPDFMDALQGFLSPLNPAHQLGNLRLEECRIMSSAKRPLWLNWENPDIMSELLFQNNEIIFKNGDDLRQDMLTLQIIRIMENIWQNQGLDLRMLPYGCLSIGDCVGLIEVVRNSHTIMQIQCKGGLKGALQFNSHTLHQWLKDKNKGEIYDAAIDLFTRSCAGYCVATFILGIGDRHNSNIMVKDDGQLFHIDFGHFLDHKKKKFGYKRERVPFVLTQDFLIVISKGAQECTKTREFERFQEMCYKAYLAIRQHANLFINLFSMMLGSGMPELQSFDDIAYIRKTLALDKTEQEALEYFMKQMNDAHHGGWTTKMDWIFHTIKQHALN
T1 sequence (P27986 whole entry partner): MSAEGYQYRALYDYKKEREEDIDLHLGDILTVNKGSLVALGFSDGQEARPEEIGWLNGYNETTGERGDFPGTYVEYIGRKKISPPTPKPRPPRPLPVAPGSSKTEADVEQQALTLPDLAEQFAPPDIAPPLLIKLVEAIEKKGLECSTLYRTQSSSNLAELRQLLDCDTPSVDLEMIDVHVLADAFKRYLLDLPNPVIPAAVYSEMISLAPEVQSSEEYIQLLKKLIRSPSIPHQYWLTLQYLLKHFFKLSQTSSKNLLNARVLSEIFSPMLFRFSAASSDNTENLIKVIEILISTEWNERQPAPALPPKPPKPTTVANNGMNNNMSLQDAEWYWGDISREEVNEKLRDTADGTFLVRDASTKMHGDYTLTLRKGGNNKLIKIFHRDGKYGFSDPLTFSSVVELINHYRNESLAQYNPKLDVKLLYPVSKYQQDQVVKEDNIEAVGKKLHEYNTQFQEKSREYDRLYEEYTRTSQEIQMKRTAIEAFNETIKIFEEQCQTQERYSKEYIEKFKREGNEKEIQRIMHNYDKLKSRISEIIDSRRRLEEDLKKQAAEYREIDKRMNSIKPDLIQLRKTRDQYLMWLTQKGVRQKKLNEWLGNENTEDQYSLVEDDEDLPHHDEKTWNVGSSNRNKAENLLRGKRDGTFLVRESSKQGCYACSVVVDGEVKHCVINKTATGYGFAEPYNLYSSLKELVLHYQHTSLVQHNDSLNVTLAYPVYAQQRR
T2 sequence (P28482 whole entry, the tested form may be a part): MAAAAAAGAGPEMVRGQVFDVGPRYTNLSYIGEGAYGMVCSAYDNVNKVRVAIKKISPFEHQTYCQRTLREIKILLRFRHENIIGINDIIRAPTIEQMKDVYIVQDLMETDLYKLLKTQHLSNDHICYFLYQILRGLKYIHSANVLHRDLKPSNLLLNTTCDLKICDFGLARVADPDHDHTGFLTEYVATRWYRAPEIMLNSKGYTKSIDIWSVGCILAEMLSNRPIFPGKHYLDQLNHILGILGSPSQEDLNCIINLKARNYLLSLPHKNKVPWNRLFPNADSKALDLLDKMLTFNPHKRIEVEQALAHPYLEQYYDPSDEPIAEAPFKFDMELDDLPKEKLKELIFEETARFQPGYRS

Row | Compound | pIC50 (human PI3Kα protein) | pIC50 ([1]; ERK2 enzyme assay (2)) | pIC50 (CHO-K1 cells) | pIC50 ([2]; ERK2 enzyme assay (1)) | pIC50 (human PI3Kα protein; [3]) | pIC50 [2, 4] | pIC50 ([1]; 1.25 nmol/L ERK2, ATP 1 mmol/L)
1 | CC(C)c1cnnc(Nc2ccc3ncc(-c4cnn(CCCN5[C@H](C)CCC[C@@H]5C)c4)cc3n2)c1 [Example 0432] | > 6.00 | > 6.00 | ≤ 4.60 |  |  |  | 
2 | CC(C)c1cnnc(Nc2ccc3ncc(-c4cnn(CC(F)CN5CCOCC5)c4)cc3n2)c1 (stereo not drawn) [Example 0733] | > 6.00 | > 6.00 | ≤ 4.60 |  |  |  | 
3 | CC(C)c1cnnc(Nc2ccc3ncc(-c4cnn(CCCN5CCC(F)CC5)c4)cc3n2)c1 [Example 0413, 7-(1-(3-(4-Fluoropiperidin-1-yl)propyl)-1H-pyrazol-4-yl)-N-(5-isopropylpyridazin-3-yl)-1,5-naphthyridine-2-amine] | > 6.00 | > 6.00 | ≤ 4.60 |  |  |  | 
4 | CC(C)c1cnnc(Nc2ccc3ncc(-c4cnn(CCCN5CC(NS(C)(=O)=O)C5)c4)cc3n2)c1 [Example 0697] | > 6.00 | > 6.00 | ≤ 4.60 |  |  |  | 
5 | CC(C)c1cnnc(Nc2ccc3ncc(-c4cnn(C[C@@H]5CCC(=O)N5C)c4)cc3n2)c1 [Example 0557, (S)-5-((4-(6-((5-isopropylpyridazin-3-yl)amino)-1,5-naphthyridin-3-yl)-1H-pyrazol-1-yl)methyl)-1-methylpyrrolidin-2-one] | > 6.00 | > 6.00 | ≤ 4.60 |  |  |  | 
6 | FC1(F)CCN(CCCn2cc(-c3cnc4ccc(Nc5nnc(C6CCCC6)s5)nc4c3)cn2)CC1 [Example 0353] | > 6.00 | > 6.00 |  | > 6.00 |  |  | 
7 | c1cc(Nc2cnc3ccc(Nc4nnc(C5CCCC5)s4)nc3c2)cnn1 [Example 0088] |  |  |  |  | > 6.00 | > 6.00 | > 6.00
8 | c1ncc(Nc2cnc3ccc(Nc4nnc(C5CCCC5)s4)nc3c2)cn1 [Example 0089] |  |  |  |  | > 6.00 | > 6.00 | > 6.00
9 | CC(C)c1nnc(Nc2ccc3ncc(-c4cn(C)nc4-c4ccccc4)cc3n2)s1 [Example 0124, 5-isopropyl-N-(7-(1-methyl-3-phenyl-1H-pyrazol-4-yl)-1,5-naphthyridin-2-yl)-1,3,4-thiadiazole-2-amine] |  |  |  |  | > 6.00 | > 6.00 | 5.00 to 6.00
10 | c1nc(CN2CCOCC2)ncc1Nc1cnc2ccc(Nc3nnc(C4CCCC4)s3)nc2c1 [Example 0116] |  |  |  |  | > 6.00 | > 6.00 | > 6.00
11 | CC(C)Cc1nnc(Nc2ccc3ncc(-c4cnn(CCCN5CCCC5)c4)cc3n2)s1 [Example 0265] | > 6.00 | > 6.00 |  | > 6.00 |  |  | 
12 | c1ccc(Cc2nnc(Nc3ccc4ncc(-c5cnn(CCCN6CCCC6)c5)cc4n3)s2)nc1 [Example 0261] | > 6.00 | > 6.00 |  | > 6.00 |  |  | 
13 | CC(C)c1nnc(Nc2ccc3ncc(-c4cn(C)nc4C4CC4)cc3n2)s1 [Example 0133] |  |  |  |  | > 6.00 | > 6.00 | > 6.00
14 | c1nnc(Nc2ccc3ncc(-c4cn[nH]c4)cc3n2)s1 [Example 0032, N-(7-(1H-pyrazol-4-yl)-1,5-naphthyridin-2-yl)-1,3,4-thiadiazole-2-amine hydrochloride] |  |  |  |  | > 6.00 | > 6.00 | > 6.00
15 | c1nc2ccc(Nc3nnc(C4CCCC4)s3)nc2cc1-c1cnn(CCCN2CCOCC2)c1 [Example 0117] |  |  |  |  | > 6.00 | > 6.00 | > 6.00
16 | CC(C)c1cnnc(Nc2ccc3ncc(-c4ccnc(O)c4)cc3n2)c1 [Example 0589, 4-(6-((5-isopropylpyridazin-3-yl)amino)-1,5-naphthyridin-3-yl)pyridin-2-ol] | > 6.00 | > 6.00 |  | > 6.00 |  |  | 
17 | CC(C)Cc1nn(C)cc1-c1cnc2ccc(Nc3nnc(C(C)C)s3)nc2c1 [Example 0138] |  |  |  |  | > 6.00 | > 6.00 | > 6.00
18 | c1nc2ccc(Nc3nnc(C4CCCC4)s3)nc2cc1-c1cnn(CCCN2CCCCC2)c1 [Example 0344, 5-cyclopentyl-N-(7-(1-(3-(piperidin-1-yl)propyl)-1H-pyrazol-4-yl)-1,5-naphthyridin-2-yl)-1,3,4-thiadiazole-2-amine] | > 6.00 | > 6.00 |  | > 6.00 |  |  | 

Row | Compound | pIC50 (human PI3Kα protein) | pIC50 ([1]; ERK2 enzyme assay (2)) | pIC50 (CHO-K1 cells) | pIC50 ([2]; ERK2 enzyme assay (1)) | pIC50 (human PI3Kα protein; [3]) | pIC50 [2, 4] | pIC50 ([1]; 1.25 nmol/L ERK2, ATP 1 mmol/L)
19 | CC(C)c1nnc(Nc2ccc3ncc(Nc4cncnc4)cc3n2)s1 [Example 0095] |  |  |  |  | > 6.00 | > 6.00 | 5.00 to 6.00
20 | CCCc1nnc(Nc2ccc3ncc(-c4cnn(CCCN5CCCC5)c4)cc3n2)s1 [Example 0364] | > 6.00 | > 6.00 |  | > 6.00 |  |  | 
21 | CCOc1nn(C)cc1-c1cnc2ccc(Nc3nnc(C(C)C)s3)nc2c1 [Example 0150] |  |  |  |  | > 6.00 | > 6.00 | 5.00 to 6.00
22 | Cn1cc(-c2cnc3ccc(Nc4nnc(C5CCCN5)s4)nc3c2)cn1 (stereo not drawn) [Example 0246, N-(7-(1-methyl-1H-pyrazol-4-yl)-1,5-naphthyridin-2-yl)-5-(pyrrolidin-2-yl)-1,3,4-thiadiazole-2-amine] | 5.00 to 6.00 | > 6.00 |  | > 6.00 |  |  | 
23 | c1nc2ccc(Nc3nnc(C4CCCC4)s3)nc2cc1N1CCn2cnnc2C1 [Example 0091] |  |  |  |  | > 6.00 | > 6.00 | > 6.00
24 | COC1CN(c2cnc3ccc(Nc4nnc(C5CCCC5)s4)nc3c2)C1 [Example 0092] |  |  |  |  | 5.00 to 6.00 | > 6.00 | > 6.00
25 | CCCCc1nn(C)cc1-c1cnc2ccc(Nc3nnc(C4CCCC4)s3)nc2c1 [Example 0115] |  |  |  |  | > 6.00 | > 6.00 | > 6.00
26 | c1nc2ccc(Nc3nnc(C4CCCC4)s3)nc2cc1-c1cnn(CCCN2CCNCC2)c1 [Example 0303, 5-cyclopentyl-N-(7-(1-(3-(piperazin-1-yl)propyl)-1H-pyrazol-4-yl)-1,5-naphthyridin-2-yl)-1,3,4-thiadiazole-2-amine] | > 6.00 | > 6.00 |  | > 6.00 |  |  | 
27 | COc1cncc(Nc2cnc3ccc(Nc4nnc(C5CCCC5)s4)nc3c2)c1 [Example 0072] |  |  |  |  | > 6.00 | > 6.00 | > 6.00
28 | FC1(F)CN(CCCn2cc(-c3cnc4ccc(Nc5nnc(C6CCCC6)s5)nc4c3)cn2)C1 [Example 0354] | > 6.00 | > 6.00 |  | > 6.00 |  |  | 
29 | Cn1cc(-c2cnc3ccc(Nc4nnc(C5CCCC5)s4)nc3c2)cn1 [Example 0172, 5-cyclopentyl-N-(7-(1-methyl-1H-pyrazol-4-yl)-1,5-naphthyridin-2-yl)-1,3,4-thiadiazole-2-amine] |  |  |  |  | > 6.00 | > 6.00 | > 6.00
30 | COc1cc(-c2cnc3ccc(Nc4cc(C(C)C)cnn4)nc3c2)ccn1 [Example 0588] | 5.00 to 6.00 | > 6.00 |  | > 6.00 |  |  | 
31 | CC(C)Oc1c(-c2cnn(C)c2)cnc2ccc(Nc3nnc(C4CCCC4)s3)nc12 [Example 0359, 5-cyclopentyl-N-(8-isopropyloxy-7-(1-methyl-1H-pyrazol-4-yl)-1,5-naphthyridin-2-yl)-1,3,4-thiadiazole-2-amine] | > 6.00 | 5.00 to 6.00 |  | > 6.00 |  |  | 
32 | Cc1nn(C)cc1-c1cnc2ccc(Nc3nnc(C(C)C)s3)nc2c1 [Example 0120] |  |  |  |  | > 6.00 | > 6.00 | > 6.00
33 | Cn1cc(-c2cnc3ccc(Nc4nnc(N5CCCC5)s4)nc3c2)cn1 [Example 0173, N-(7-(1-methyl-1H-pyrazol-4-yl)-1,5-naphthyridin-2-yl)-5-(pyrrolidin-1-yl)-1,3,4-thiadiazole-2-amine] |  |  |  |  | 5.00 to 6.00 | > 6.00 | > 6.00
34 | c1nc2ccc(Nc3nnc(C4CCCCC4)s3)nc2cc1-c1cnn(CCCN2CCCC2)c1 [Example 0236] | > 6.00 | > 6.00 |  | > 6.00 |  |  | 
35 | Cc1ccc(Nc2ccc3ncc(-c4cnn(C)c4)cc3n2)nn1 [Example 0151] |  |  |  |  | 4.30 to 5.00 | > 6.00 | 5.00 to 6.00

Source: patent US9783536B2, “Nitrogen-containing heterocyclic compound or salt thereof” (FUJIFILM Corporation, priority 2013, dated 2017)
